Results as given in patent US20230277669A1, “USES OF UROLITHINS” (Amazentis SA, priority 2022, published 2023).

Legend:
[1] = test system: CAR-T cells specific for carcinoembryonic antigen (CEA); test: UA applied to previously frozen CEA-specific CAR-T cells; type: cell-based, human
[2] = test system: C.elegans; conditions: in vivo; cited from earlier work
[3] = test system: NALM-6 leukemia cells; test: Killing of NALM-6 cells by CD19-CAR T cells; type: cell-based, human; conditions: 24 h co-culture
[4] = test system: Pink1^-/- CD8^+ T cells; test: In vitro stimulation of Pink1-/- T cells in presence of UA; type: cell-based, Pink1^-/- mice
Experimental: (§1) (FIG. 4A) Scheme of CD3+ T-cell activation and analysis for various timepoints in order to investigate mitophagy induction in vitro. (FIG. 4B) Analysis of mitochondrial membrane potential within CD8+ T cells, with TMRM^lo representing cells with low mitochondrial membrane potential. Analysis was performed six hours after stimulation with aCD/aCD28 stimulation beads at the presence of the indicated treatments. N=4 per group, *p < 0.05 by Mann Whitney U test. One of two independent experiments are shown. (FIG. 4C) Representative flow histogram and quantification of lysosome formation in CD8+ cells six hours after in vitro stimulation. MFI shown relative to DMSO controls, n=4. Data are normalised mean ± SD, statistical analysis by two-sided t-test. One out of two independent experiments are shown. (FIG. 4D) Mitotracker Red staining of in vitro stimulated CD8+ cells after 24 hours of Urolithin A (UA25 n=6; UA50 n=6) or vehicle control treatment (DMSO: n=4). A representative flow histogram depicting identification of Mitotracker^hi cells is shown. Data are mean ± SD, statistical analysis was performed by two-sided t-test (*p < 0.05; ***p <0.001; ****p < 0.0001). Experiment was repeated twice. (FIG. 4E) Subset-specific identification of Mitotracker red accumulation after 24 hours of in vitro stimulation either with vehicle control (DMSO) or 50 µM Urolithin A (n=5). Subsets were identified was depicted in the FIGS. 7-9. Data are mean ± SD, statistical analysis by two-sided t-test (* p<0.05, *** p<0.001 and **** p<0.0001). (FIG. 4F) qPCR analysis of various autophagy/mitophagy associated genes of in vitro activated CD3+ cells, 24 h after activation (n=3). Data are ± SEM, statistical analysis was performed by two-sided t-test (*p < 0.05,**p < 0.01). Overall p value is given for the comparison over the entire panel of genes after two-way ANOVA test. (FIG. 4G) Western blot of Parkin protein expression in UA or DMSO (n=3) treated cells after 24 h. Cells were stimulated at the presence of plate-bound aCD3/aCD28 antibodies. […] (FIG. 4H) CD8+ cells from Pink1^-/- mice display deficient mitophagy upon UA treatment in vitro: Lysosome formation in CD8+ of Pink1^-/- mice as assessed by Lysotracker staining 6h post stimulation at the presence of UA or DMSO (n=4). Data are mean ± SD, one out of two independent experiments are shown. (FIG. 4I) CD8+ cells from Pink1^-/- mice display deficient mitophagy upon UA treatment in vitro: Mitotracker red staining of Pink1^-/- CD8+ stimulated in vitro for 48 h, either in the presence of UA or DMSO (n=4). Percentage of Mitotracker^hi CD8+ cells are shown. Data are mean ± SD and acquired via flow cytometry. One out of two independent experiments are shown. Statistical analysis was performed by two-sided t-test (n.s., not significant). (FIG. 4J) CD8+ cells from Pink^-/- mice fail to reprogram to TSCM after UA exposure in vitro: TSCM formation in Pink1^-/- CD8+ cells 48 h after stimulation in the presence of UA (25 µM and 50 µM) and DMSO (n=4, respectively). Data are mean ± SD, statistical analysis was performed by two-sided t-test (***p <0.001). Data depicts results of three independent experiments. (FIG. 4K) Expression of TCF1 in naïve-like CD62L^+CD44^-CD8^+ Pink1^-/- cells. Data are ± SD, depicted as MFI (***p <0.001 by two-sided t-test). (FIG. 4L) Growth curve of Pink1^-/- mice s.c. injected with APTK-organoids, fed UA-rich or control diet as depicted in FIG. 1J. n=4 per group. Data are mean ± SD. (FIG. 4M) Flow cytometry analysis of TIL in Pink ^-^/- mice s.c. transplanted with APTK tumors, fed either UA or control diet. Quantification of TCF1^hi cells among CD8. (FIG. 4N) Quantification of PD1^hi cells among CD8. (FIG. 4O) Quantification of and Tim3^hi cells among CD8. (FIG. 4P) Ex vivo cytokine release assay. TIL of Pink1^-/- from FIG. 4L were stimulated ex vivo with PMA and lonomycin, in the presence of Brefeldin A for three hours. Data depicts percentage of TNFα^hi cells within the CD8+ compartment. All data are mean ± SD (n=4). […]

[5] = test system: APTK tumors; test: Oral UA in Pink1-/- mice with s.c. APTK tumors; type: in vivo
Experimental: as §1, with “One out of two independent experiments are shown. Statistical analysis was performed by two-sided t-test (n.s., not significant). (FIG. 4J) CD8+ cells from Pink^-/- mice fail to reprogram to TSCM after UA exposure in vitro: TSCM formation in Pink1^-/- CD8+ cells 48 h after stimulation in the presence of UA (25 µM and 50 µM) and DMSO (n=4, respectively). Data are mean ± SD, statistical analysis was performed by two-sided t-test (***p <0.001). Data depicts results of three independent experiments. (FIG. 4K) Expression of TCF1 in naïve-like CD62L^+CD44^-CD8^+ Pink1^-/- cells. Data are ± SD, depicted as MFI (***p <0.001 by two-sided t-test). (FIG. 4L) Growth curve of Pink1^-/- mice s.c. injected with APTK-organoids, fed UA-rich or control diet as depicted in FIG. 1J. n=4 per group. Data are mean ± SD. (FIG. 4M) Flow cytometry analysis of TIL in Pink ^-^/- mice s.c. transplanted with APTK tumors, fed either UA or control diet.” left out, “CD8.” for “CD8. (FIG. 4P) Ex vivo cytokine release assay. TIL of Pink1^-/- from FIG. 4L were stimulated ex vivo with PMA and lonomycin, in the presence of Brefeldin A for three hours. Data depicts percentage of TNFα^hi cells within the CD8+ compartment. All data are mean ± SD (n=4).”

O=c1oc2cc(O)ccc2c2ccc(O)cc12 [Urolithin A]
CAR TSCM formation [1]: strongly enhanced CAR TSCM formation
lifespan [2]: prolonged lifespan
mitochondrial content [2]: higher mitochondrial content
CD19 CAR-T cell mediated killing of NALM-6 leukemia cells [3]: did not have a negative impact
TCF-1 in CD44-CD62L+CD8+ T cells [4]: expressed less TCF-1
cytoplasmic expression of Pgam5 ([4]; 6 h, upon UA exposure): lack of cytoplasmic expression of Pgam5
UA-induced lysosome formation ([4]; 6h post stimulation): prevented
PGC-1α expression ([4]; 48 h): failed to enhance
UA-induced decrease in mitochondrial content ([4]; 48 h): prevented
TSCM phenotype ([4]; 48 h, UA 25 µM and 50 µM): failed to exhibit a TSCM phenotype
ex vivo cytokine release of CD8+ TIL ([5]; PMA and Ionomycin restimulation): did not exhibit differences
TCF-1 expression in CD8+ TIL ([5]; UA or control diet): did not exhibit differences
exhaustion markers in CD8+ TIL ([5]; UA or control diet): did not exhibit differences
tumor suppressive effect of UA (growth curve) ([5]; UA-rich or control diet): abrogated the tumor suppressive effect of UA
